# Literature values, collected in patent US10441534B2, “Method for treating gynecological diseases” (PregLem SA, priority 2012, dated 2019).
# Experiments:
# [1] = once daily UPA 5 mg tablets, plasma
# [2] = test system: uterine fibroids; settings: three months treatment period
compound,measurement,setting,value
"CC(=O)O[C@]1(C(C)=O)CC[C@H]2[C@@H]3CCC4=CC(=O)CCC4=C3[C@@H](c3ccc(N(C)C)cc3)C[C@@]21C [ulipristal acetate, 17α-acetoxy-11β-(4-(N,N-dimethylamino)-phenyl)-19-norpregna-4,9-diene-3,20-dione]",UPA Cmax,[1],about 25 ng/mL
same,UPA steady state concentrations,[1],about 3 ng/mL
same,efficacy in patient with uterine fibroids,[2],"efficient on the control of bleeding, reduction of fibroids volume and improvement of the patient quality of life"
